Source: patent US7763287B2, “Extract of Cercis chinensis having anti-oxidant activity and anti-aging activity, and cosmetical composition containing the extract for anti-oxidation, skin-aging protection and wrinkle improvement” (Hankook Pharm. Co., Inc., priority 2002, dated 2010)

Experiments:
[1] = DPPH radical scavenging activity; assay type: biochemical; settings: for DPPH radical scavenging activity IC50: Table 3
Experimental: In order to extract an effective ingredient having an anti-oxidant activity from Cercis chinensis, an experiment was performed following the procedure represented in a schematic diagram of FIG. 1. Particularly, 1 kg of leaves and stems of Cercis chinensis, dried in shadow, were grinded to powder using a pulverizer, which was extracted by ethanol (EtOH) at room temperature twice at intervals of two weeks. For the extraction, ethanol solutions were prepared by adding ethanol gradually, 10% at a time, from 0% to 100%. The prepared ethanol solutions were used for the extraction. […] But, it looses absorbance when being scavenged. Based on that point, an anti-oxidant activity can be measured using DPPH. […] Then, each solution was distributed into a 96 well plate by 10 μl each, into which 190 μl of DPPH(Sigma, St. Louis, Mo, USA) solution whose ethanol concentration was 2×10^−4 M/ml was added. The plate was just left at room temperature for 30 minutes. Finally, OD517 was measured at 517 nm. For a control, DMSO was added instead of the sample, and changes of optical density were investigated. […] DDPH Radical Scavenging Activity (%)=(Acontrol−Asample)/(Acontrol)×100 <Mathematica Formula 1>
Acontrol: Optical density of control group (sample was not added),
Asample: Optical density of experimental group (sample was added).
In order to identify a fraction having an anti oxidant activity among hexane Fr, EtOAc Fr and BuOH Fr obtained above, a DPPH radical scavenging activity was measured using each extract of each fraction following the method used above. At this time, vitamin E, known to have high DPPH radical scavenging activity, was used as a comparing group.
At this time, BHA (tert-butyl-4 hydroxyanisole) and α-tocopherol, synthetic anti-oxidant agents, were used as positive controls.

[2] = Hydroxyl radical scavenging activity (deoxyribose/TBA, method of Halliwell); assay type: biochemical; settings: for Hydroxyl radical scavenging activity (%): 10 μg of sample, total volume 1 ml
Experimental: Hydroxyl radical (HO.) is generated by the reaction of a metal ion or a superoxide radical. Owing to its strong reactivity, hydroxyl radical causes oxidative damages to DNA, protein and lipid in vivo. Nitric oxide (NO.) is reacted with a superoxide radical to generate a peroxy nitrite (ONOO—), also having strong reactivity. […] Particularly, each compound was mixed with 10 μg of a sample dissolved in DMSO, phosphate buffer (20 mM, pH 7.4) 5.6 mM deoxyribose, 0.1 mM FeCl3, 1 mM H2O2 and 0.1 mM ascorbic acid, making total volume 1 ml, which was then reacted at 37° C. for 60 minutes. 250 μl of 20% TCA and 250 μl of 1% TBA solution (dissolved in 50 mM NaOH) were added to the reaction solution, followed by thermal reaction at 95° C. for 5 minutes. After completing the reaction, OD532 was measured. Hydroxyl radical scavenging activity was calculated by the below
<Mathematical Formula 3>. BHA and α-tocopherol were used for a positive control. Hydroxyl Radical Scavenging Activity (%)=(Acontrol−Asample)/(Acontrol−Ablank)×100 <Mathematical Formula 3>
Acontrol: Optical density of control group well (sample was not added),
Asample: Optical density of experimental group well (sample was added),
Ablank: Optical density of well not added with sample, TCA and TBA

[3] = Nitric oxide scavenging activity; assay type: biochemical; set-up: Nitric oxide scavenging activity (%): concentration or dose not given beside the values
[4] = Superoxide radical scavenging activity (xanthine/xanthine oxidase, NBT); assay type: biochemical; settings: Table 6
Experimental: Superoxide radical (O^2−) itself has a little reactivity, but is easily changed into H2O2 that generates hydroxyl radical having strong reactivity or is reacted with nitric oxide (NO.) to generate peroxy nitrite (ONOO^−) having strong reactivity, too. Thus, it might be a reason for oxidation of SH-group, nitration of protein tyrosine, lipid peroxidation and DNA damage. […] Basically, measurement of superoxide radical scavenging activity was performed by investigating the activity of superoxide dismutase (SOD), an enzyme scavenging superoxide by dismutation of the same. In the present invention, an activity of a sample to inhibit superoxide production by the enzyme reaction of xanthine/xanthine oxidase and its another activity to inhibit reaction (NBT+20^2−→NBTH2+2O2) generating formazan by reduction of nitro blue tetrazolium (referred as ‘NBT’ hereinafter) were measured. Particularly, wells of a 96-well plate were supplemented with 50 μl of 4 mM xanthine (Sigma), 50 μl of […] NBT (Sigma), 50 μl of 50 mM phosphate buffer (pH 7.8, 1 mM EDTA) and 10 μl of each sample, into which 40 μl of xanthine oxidase was added to induce a reaction. After the reaction was completed, each reaction solution was collected as scheduled, and OD550 was measured with an ELISA reader. […] Superoxide Radical Scavenging Activity (%)=(Acontrol−Asample)/(Acontrol−Ablank)×100 <Mathematical Formula 4> […]

[5] = test system: rat brain homogenates; experiment: Lipid peroxidation inhibitory activity (Fe2+/ascorbic acid, TBA method); settings: Table 4
[6] = test system: HEK-N/F cells; experiment: Protection of cells from oxidative damage induced by t-butylhydroperoxide; assay type: cell-based, human; settings: 1.5 mM t-butylhydroperoxide 3 hours; for TBARS (pmol/mg protein): compound 50.0 µg/ml
Experimental: t-butylhydroperoxide is metabolized into a free radical intermediate as it comes in a cell, so that it causes lipid peroxidation, resulting in cell damage. This phenomenon is similar to that caused by oxidataive stress accumulated in cells and tissues. […] HEK-N/F, an epidermal cell line of a newborn baby, was treated with 1.5 mM of t-butylhydroxyperoxide for 3 hours.

| Compound | DPPH radical scavenging activity IC50 [1] [µg/mL] | Hydroxyl radical scavenging activity (%) [2] [%] | Nitric oxide scavenging activity (%) [3] [%] | Superoxide radical scavenging activity IC50 [4] [µg/mL] | Lipid Peroxidation Inhibitory Activity IC50 [5] [µg/mL] | Cell survival rate (%) [6] [%] | TBARS (pmol/mg protein) [6] [pmol/mg protein] | Hydroxyl radical scavenging activity (in words) [2] | Nitric oxide scavenging activity (in words) [3] | DPPH radical scavenging IC50 ([1]; fractions of the 60% ethanol extract) [µg/mL] |
| --- | --- | --- | --- | --- | --- | --- | --- | --- | --- | --- |
| COc1cc(-c2oc3cc(O)cc(O)c3c(=O)c2O[C@@H]2O[C@H](CO[C@@H]3O[C@@H](C)[C@H](O)[C@@H](O)[C@H]3O)[C@@H](O)[C@H](O)[C@H]2OC(=O)c2cc(O)c(O)c(O)c2)cc(OC)c1O [Chemical Formula 15, syringetin-3-O-(2″-O-galloyl)-rutinoside] | 29.2 ± 1.8 | 16.4 | 14.1 ± 1.4 | 37.1 ± 2.0 | 10.10 ± 1.02 |  |  |  |  |  |
| COc1ccc(/C=C/C(=O)c2ccc(O)cc2O)cc1 [Chemical Formula 2, 2′,4′-dihydroxy-4-methoxychalcone] | >50 | 4.5 |  | 49.8 ± 3.1 | 12.81 ± 1.86 | 16.2 ± 3.2 | 3449.7 ± 305.8 |  |  |  |
| COc1cc(C2c3c(cc(OC)c(O)c3OC)CC(CO)C2CO[C@@H]2O[C@H](CO)[C@@H](O)[C@H](O)[C@H]2O)cc(OC)c1O (single isomer, unassigned; (+)) [Chemical Formula 20, (+)-lyoniresiol 3a-O-β-D-glucopyranoside] | 42.6 ± 3.1 | 8.1 | 0.8 ± 0.8 | >100 | 39.10 ± 3.11 | 12.9 ± 2.1 | 7635.7 ± 631.2 |  |  |  |
| Cc1c(C)c2c(c(C)c1O)CC[C@@](C)(CCC[C@H](C)CCC[C@H](C)CCCC(C)C)O2 [α-tocopherol, reference compound] | 25.4 ± 0.9 | 0.8 |  |  | 6.61 ± 0.95 |  |  |  |  |  |
| C[C@@H]1O[C@@H](Oc2c(-c3ccc(O)cc3)oc3cc(O)cc(O)c3c2=O)[C@H](O)[C@H](O)[C@H]1O [Chemical Formula 10, afzelin] |  |  |  |  |  | 16.8 ± 1.3 | 3295.1 ± 304.5 |  |  |  |
| COC(=O)c1cc(O)c(O)c(O)c1 [Chemical Formula 7, methyl gallate] | 5.3 ± 0.3 | 43.8 | 32.6 ± 2.8 | 16.5 ± 1.4 | 7.05 ± 0.87 | 43.0±5.6 | 1024.4 ± 91.9 | remarkably higher hydroxyl radical scavenging activities |  |  |
| Oc1ccc(C=Cc2cc(O)cc(O)c2)cc1 [Chemical Formula 4, resveratrol] |  |  |  |  | 0.89 ± 0.10 | 18.1 ± 1.6 | 2792.4 ± 259.1 |  |  |  |
| (−)-epigallocatechin-3-O-gallate [Chemical Formula 18] | 6.7 ± 0.4 | 54.0 | 26.2 ± 0.9 | 24.0 ± 3.5 | 1.00 ± 0.08 | 46.6 ± 5.9 | 1032.6 ± 103.5 | remarkably higher hydroxyl radical scavenging activities | comparatively high nitric oxide scavenging activity |  |
| O=C(O)c1cc(O)c(O)c(O)c1 [Chemical Formula 6, gallic acid] | 5.1 ± 0.4 | 33.6 | 25.0 ± 2.0 |  | 6.80 ± 0.63 | 41.5±3.1 | 1245.7 ± 112.4 |  |  |  |
| O=C(O)/C=C/c1ccc(O)c(O)c1 [Caffeic acid, caffeic acid, reference compound] |  |  |  | 11.0 ± 1.8 |  |  |  |  |  |  |
| vitamin E [reference compound] |  |  |  |  |  |  |  |  |  | 24.9 |
| O=C(/C=C/c1ccc(O)cc1)c1ccc(O)cc1O [Chemical Formula 1, isoliquiritigenin] |  |  |  |  | 3.33 ± 0.50 | 13.9 ± 12.6 | 5118.1 ± 410.5 |  |  |  |
| C[C@@H]1O[C@@H](Oc2c(-c3ccc(O)c(O)c3)oc3cc(O)cc(O)c3c2=O)[C@H](O)[C@H](O)[C@H]1O [Chemical Formula 11, quercitrin] |  |  |  |  |  |  | 2217.2 ± 200.3 |  |  |  |
| tert-butyl-4-hydroxyanisole [BHA, reference compound] | 15.3 ± 0.6 | 15.6 |  | 48.8 ± 2.5 | 0.11 ± 0.02 |  |  |  |  |  |
| O=C1C[C@@H](c2ccc(O)cc2)Oc2cc(O)ccc21 [Chemical Formula 3, liquiritigenin] | >50 | 3.2 |  | 59.2 ± 3.8 | 6.05 ± 0.99 | 12.1 ± 1.0 | 8255.1 ± 576.4 |  |  |  |
